Reference: US11179372B2, “Isoxazoline solution containing vitamin E for use with sanitized drinking water” (Intervet Inc., priority 2015, dated 2021)

Test: Effect of drinking water quality on degradation of Fluralaner
Type: physicochemical
Method: To assess what caused the degradation of Fluralaner in dilution in drinking water, the impact of different types and qualities of drinking water was tested. This was done by incubation of samples containing 1 μg/g of Fluralaner, in water that contained different ions at increased concentrations from average normal conditions. Samples were mixed and incubated for 7 days, either at 2-8° C., or at 40° C./75% relative humidity (RH). Fluralaner contents were measured before and after incubations. Isoxazolines such as Fluralaner can be detected and quantified by fast liquid chromatography methods, using standard equipment and procedures, such as UHPLC. Standard liquids for washing and as carrier are e.g.: LC grade Acetonitrile, Methanol, Formic acid, and MiliQ™ water can be prepared in house. Fluralaner is characterised based on its UV spectrum and retention profile, and quantified in reference to dilutions of standards. LoQ=Limit of Quantitation, the lowest concentration at which the analyte can reliably be detected. For Fluralaner by UHPLC the LoQ is 100 ng/ml.

[1] = 1 μg/g Fluralaner in Al^3+ water at 1 mg/l
[2] = 1 μg/g Fluralaner in ClO^- water at 0.5 ppm
[3] = 1 μg/g Fluralaner in ClO^- water at 5 ppm
[4] = 1 μg/g Fluralaner in ClO^- water at 50 ppm
[5] = 1 μg/g Fluralaner in ClO^- water at 150 ppm
[6] = 1 μg/g Fluralaner in ClO^- water at 250 ppm
[7] = 1 μg/g Fluralaner in Cl^- water at 300 mg/l
[8] = 1 μg/g Fluralaner in Cu^2+ water at 10 mg/l
[9] = 1 μg/g Fluralaner in Fe^3+ water at 1 mg/l
[10] = 1 μg/g Fluralaner in Hard water/high pH (500 mg CaCl2•2H2O/l; pH 8.1)
[11] = 1 μg/g Fluralaner in K^+ water at 300 mg/l
[12] = 1 μg/g Fluralaner in NO3^- water at 100 mg/l
[13] = 1 μg/g Fluralaner in Na^+ water at 300 mg/l
[14] = 1 μg/g Fluralaner in PO4^- water at 100 mg/l
[15] = 1 μg/g Fluralaner in Purified water
[16] = 1 μg/g Fluralaner in Soft water/low pH (30 mg CaCl2•2H2O/l; pH 6.2)
[17] = 1 μg/g Fluralaner in Water at pH = 4
[18] = 1 μg/g Fluralaner in Water at pH = 10

With `Cc1cc(C2=NOC(c3cc(Cl)cc(Cl)c3)(C(F)(F)F)C2)ccc1C(=O)NCC(=O)NCC(F)(F)F` (stereo not drawn) [Fluralaner] the “Fluralaner content after 7 days at 2-8° C.” value [1] was 0.99 µg/g, the “Fluralaner content after 7 days at 40° C./75% RH” value [1] was 1.01 µg/g and the “Fluralaner content after 7 days at 2-8° C.” value [2] was 0.99 µg/g. The “Fluralaner content after 7 days at 40° C./75% RH” value [2] was 0.82 µg/g, the “Fluralaner content after 7 days at 2-8° C.” value [3] was “<LOQ” and the “Fluralaner content after 7 days at 40° C./75% RH” value [3] was “<LOQ”. The “Fluralaner content after 7 days at 2-8° C.” value [4] was “<LOQ”, the “Fluralaner content after 7 days at 40° C./75% RH” value [4] was “<LOQ” and the “Fluralaner content after 7 days at 2-8° C.” value [5] was “<LOQ”. For the same compound, the “Fluralaner content after 7 days at 40° C./75% RH” value [5] was “<LOQ”, the “Fluralaner content after 7 days at 2-8° C.” value [6] was “Not detected” and the “Fluralaner content after 7 days at 40° C./75% RH” value [6] was “Not detected”. The “Fluralaner content after 7 days at 2-8° C.” value [7] was 0.97 µg/g, the “Fluralaner content after 7 days at 40° C./75% RH” value [7] was 0.98 µg/g and the “Fluralaner content after 7 days at 2-8° C.” value [8] was 0.90 µg/g. The “Fluralaner content after 7 days at 40° C./75% RH” value [8] was 0.78 µg/g, the “Fluralaner content after 7 days at 2-8° C.” value [9] was 0.91 µg/g and the “Fluralaner content after 7 days at 40° C./75% RH” value [9] was 0.89 µg/g. For the same compound, the “Fluralaner content after 7 days at 2-8° C.” value [10] was 0.92 µg/g, the “Fluralaner content after 7 days at 40° C./75% RH” value [10] was 0.96 µg/g and the “Fluralaner content after 7 days at 2-8° C.” value [11] was 0.90 µg/g. For the same compound, the “Fluralaner content after 7 days at 40° C./75% RH” value [11] was 0.80 µg/g, the “Fluralaner content after 7 days at 2-8° C.” value [12] was 0.92 µg/g and the “Fluralaner content after 7 days at 40° C./75% RH” value [12] was 0.93 µg/g. For the same compound, the “Fluralaner content after 7 days at 2-8° C.” value [13] was 0.85 µg/g, the “Fluralaner content after 7 days at 40° C./75% RH” value [13] was 0.84 µg/g and the “Fluralaner content after 7 days at 2-8° C.” value [14] was 1.14 µg/g. The “Fluralaner content after 7 days at 40° C./75% RH” value [14] was 1.15 µg/g, the “Fluralaner content after 7 days at 2-8° C.” value [15] was 0.90 µg/g and the “Fluralaner content after 7 days at 40° C./75% RH” value [15] was 0.92 µg/g. The “Fluralaner content after 7 days at 2-8° C.” value [16] was 0.88 µg/g, the “Fluralaner content after 7 days at 40° C./75% RH” value [16] was 0.89 µg/g and the “Fluralaner content after 7 days at 2-8° C.” value [17] was 1.23 µg/g. The “Fluralaner content after 7 days at 40° C./75% RH” value [17] was 1.26 µg/g, the “Fluralaner content after 7 days at 2-8° C.” value [18] was 0.78 µg/g and the “Fluralaner content after 7 days at 40° C./75% RH” value [18] was 0.79 µg/g.
